{
  "source": "ChEMBL document CHEMBL1159240",
  "about": "“(-)-Roemerine, an aporphine alkaloid from Annona senegalensis that reverses the multidrug-resistance phenotype with cultured cells” (1995)",
  "key": {"A-431": {"test_system": "A-431", "experiment": "Cytotoxicity against human A431 cells after 72 hrs by SRB assay", "assay_type": "functional", "details": "A-431, 72 h, read-out: ED50 (the source's name)"}, "[1]": {"experiment": "Cytotoxicity against human BC1 cells after 72 hrs by SRB assay", "assay_type": "functional", "details": "BC1, 72 h, read-out: ED50 (the source's name)"}, "Col2": {"test_system": "Col2", "experiment": "Cytotoxicity against human Col2 cells after 72 hrs by SRB assay", "assay_type": "functional", "details": "Col2, 72 h, read-out: ED50 (the source's name)"}, "HT": {"test_system": "HT", "experiment": "Cytotoxicity against human HT cells after 72 hrs by SRB assay", "assay_type": "functional", "details": "read-out: ED50 (the source's name)"}, "[2]": {"experiment": "Cytotoxicity against human KB3 cells after 72 hrs by SRB assay", "assay_type": "functional", "details": "KB3, 72 h, read-out: ED50 (the source's name)"}, "[3]": {"experiment": "Cytotoxicity against human multidrug resistant KBV1 cells in presence of vinblastine", "assay_type": "functional", "details": "KB-V1, read-out: ED50 (the source's name)"}, "LNCaP": {"test_system": "LNCaP", "experiment": "Cytotoxicity against human LNCAP cells after 72 hrs by SRB assay", "assay_type": "functional", "details": "read-out: ED50 (the source's name)"}, "Lu1": {"test_system": "Lu1", "experiment": "Cytotoxicity against human Lu1 cells after 72 hrs by SRB assay", "assay_type": "functional", "details": "Lu1, 72 h, read-out: ED50 (the source's name)"}, "SK-MEL-2": {"test_system": "SK-MEL-2", "experiment": "Cytotoxicity against human SK-MEL-2 cells after 72 hrs by SRB assay", "assay_type": "functional", "details": "SK-MEL-2, 72 h, read-out: ED50 (the source's name)"}, "P388": {"test_system": "P388", "experiment": "Cytotoxicity against mouse P388 cells after 72 hrs by SRB assay", "assay_type": "functional", "details": "P388, 72 h, read-out: ED50 (the source's name)"}, "[4]": {"experiment": "Cytotoxicity against human U373 cells after 72 hrs by SRB assay", "assay_type": "functional, U-373MG ATCC", "details": "U373 MG, read-out: ED50 (the source's name)"}, "ZR-75-1": {"test_system": "ZR-75-1", "experiment": "Cytotoxicity against human ZR-75-1 cells after 72 hrs by SRB assay", "assay_type": "functional", "details": "ZR-75-1, 72 h, read-out: ED50 (the source's name)"}, "[5]": {"experiment": "Cytotoxicity against human multidrug resistant KBV1 cells in absence of vinblastine after 72 hrs by SRB assay", "assay_type": "functional", "details": "KB-V1, 72 h, read-out: ED50 (the source's name)"}},
  "data": [
    {"smiles": "CN1CCc2cc3c(c4c2[C@H]1Cc1ccccc1-4)OCO3", "values": [
      {"measurement": "EC50", "setting": "A-431", "value": 4.3, "unit": "µg/mL"},
      {"measurement": "EC50", "setting": "[1]", "value": 8.3, "unit": "µg/mL"},
      {"measurement": "EC50", "setting": "Col2", "value": 5.8, "unit": "µg/mL"},
      {"measurement": "EC50", "setting": "HT", "value": 6.4, "unit": "µg/mL"},
      {"measurement": "EC50", "setting": "[2]", "value": "> 20", "unit": "µg/mL"},
      {"measurement": "EC50", "setting": "[3]", "value": 0.6, "unit": "µg/mL"},
      {"measurement": "EC50", "setting": "LNCaP", "value": 10.7, "unit": "µg/mL"},
      {"measurement": "EC50", "setting": "Lu1", "value": 6.6, "unit": "µg/mL"},
      {"measurement": "EC50", "setting": "SK-MEL-2", "value": "> 20", "unit": "µg/mL"},
      {"measurement": "EC50", "setting": "P388", "value": "> 5", "unit": "µg/mL"},
      {"measurement": "EC50", "setting": "[4]", "value": 5, "unit": "µg/mL"},
      {"measurement": "EC50", "setting": "ZR-75-1", "value": "> 20", "unit": "µg/mL"},
      {"measurement": "EC50", "setting": "[5]", "value": "> 20", "unit": "µg/mL"}
    ]}
  ]
}
